Data reported in patent publication US20020183384A1, “Methods of treating nuclear factor-kappa B mediated diseases and disorders” (priority 2001, published 2002).

System: NF-κB mediated transcription
Assay: NF-κB driven β-lactamase reporter assay in ECV-304 NF-κB.βlaZ cells (AURORA CCF2 fluorescence)
Format: cell-based, human
Conditions: 10 μM compound; ECV-304 NF-κB.βlaZ cells stimulated with 10 ng/mL TNF-α or 100 pg/mL IL-1β, 6 hours at 37° C.; inhibition of maximum blue/green ratio
Summary of the method: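 Blue/green (460/530 nm, excitation 395 nm) CCF2 emission ratio quantified NF-κB-driven β-lactamase expression in the stably transfected endothelial-like ECV-304 clone 1E8.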

| SMILES | Percent Inhibition at 10 μM [%] |
| --- | --- |
| CC(C)c1cc(C(C)C)c(CC(=O)NS(=O)(=O)Oc2c(C(C)C)cc(NC(=O)[C@@H](N)CCCCN)cc2C(C)C)c(C(C)C)c1 [Example 197, [2-(2,4,6-Triisopropyl-phenyl)-acetyl]-sulfamic acid 4-((S)-2,6-diamino-hexanoylamino)-2,6-diisopropyl-phenyl ester; compound with generic inorganic neutral component] | <10 |

Same assay, conditions: Homo sapiens, ECV-304, 6 h, 10 μM compound; ECV-304 NF-κB.βlaZ cells stimulated with 10 ng/mL TNF-α or 100 pg/mL IL-1β, 6 hours at 37° C.; inhibition of maximum blue/green ratio; read-out: Percent Inhibition at 10 μM

| SMILES | inhibition at 10 µM [%] |
| --- | --- |
| CC(C)c1cccc(C(C)C)c1OS(=O)(=O)NC(=O)C(c1ccccc1)c1ccccc1 [Example 160, Diphenylacetyl-sulfamic acid 2,6-diisopropyl-phenyl ester] | 34.2 |
| CCCCCCCCCCCCCC(C)(C)S(=O)(=O)NC(=O)Nc1c(C(C)C)cccc1C(C)C [Example 248, N-[2,6-bis(1-methylethyl)phenyl]-N′-(2-methyl-2-pentadecylsulfonyl)urea] | 11.4 |
| CC(C)c1cccc(C(C)C)c1OS(=O)(=O)NC(=O)CC1CCCCC1 [Example 155, Cyclohexylacetyl-sulfamic acid 2,6-diisopropyl-phenyl ester] | < 10 |
| CC(C)c1cccc(C(C)C)c1OS(=O)(=O)NC(=O)C1CC1c1ccccc1 (stereo not drawn) [Example 144, (2-Phenyl-cyclopropanecarbonyl)-sulfamic acid 2,6-diisopropyl-phenyl ester] | 16.2 |
| CC(C)c1cc(C(C)C)c(CC(=O)NS(=O)(=O)Oc2c(C(C)C)cc(CO)cc2C(C)C)c(C(C)C)c1 [Example 233, [(2,4,6-Triisopropyl-phenyl)-acetyl]-sulfamic acid 4-hydroxymethyl-2,6-diisopropyl-phenyl ester] | 76.9 |
| CC(C)c1cccc(C(C)C)c1NC(=O)NS(=O)(=O)NC1c2ccccc2-c2ccccc21 [Example 19, N-[2,6-bis(1-methylethyl)phenyl]-N′-[(9H-fluoren-9-ylamino)-sulfonyl]-urea] | 20.2 |
| CC(C)c1cccc(C(C)C)c1CC(=O)NS(=O)(=O)Oc1c(C(C)C)cccc1C(C)C [Example 122, Sulfamic acid, [[2,6-bis(1-methylethyl)phenyl]acetyl]-, 2,6-bis(1-methylethyl)-phenyl ester] | 65.3 |
| CC(C)c1cccc(C(C)C)c1NC(=O)NS(=O)(=O)N1CCCCC1 [Example 71, Urea, N-[2,6-bis(1-methylethyl)phenyl]-N′-(1-piperidinylsulfonyl)-] | < 10 |
| CC(C)c1cccc(C(C)C)c1OS(=O)(=O)NC(=O)Cc1cccs1 [Example 148, (Thiophen-2-yl-acetyl)-sulfamic acid 2,6-diisopropyl-phenyl ester] | < 10 |
| COc1ccccc1CC(=O)NS(=O)(=O)Oc1c(C(C)C)cccc1C(C)C [Example 156, [(2-Methoxy-phenyl)-acetyl]-sulfamic acid 2,6-diisopropyl-phenyl ester] | < 10 |

Same assay, conditions: Homo sapiens; 10 μM compound; ECV-304 NF-κB.βlaZ cells stimulated with 10 ng/mL TNF-α or 100 pg/mL IL-1β, 6 hours at 37° C.; inhibition of maximum blue/green ratio; read-out: Percent Inhibition at 10 μM

| SMILES | inhibition at 10 µM [%] |
| --- | --- |
| Cc1cccc(C)c1OS(=O)(=O)NC(=O)Oc1c(C(C)C)cccc1C(C)C [Example 98, Carbamic acid, [(2,6-dimethylphenoxy)sulfonyl]-, 2,6-bis(1-methylethyl)-phenyl ester] | < 10 |
| CCCCCCNS(=O)(=O)NC(=O)Oc1c(C(C)C)cccc1C(C)C [Example 67, Carbamic acid, [(hexylamino)sulfonyl]-, 2,6-bis(1-methylethyl)phenyl ester] | 13.8 |
| CC(C)(C)c1cccc(C(C)(C)C)c1OC(=O)NS(=O)(=O)NCC(c1ccccc1)c1ccccc1 [Example 11, Carbamic acid, [[(2,2-diphenylethyl)amino]sulfonyl]-, 2,6-bis(1,1-dimethylethyl)-phenyl ester] | 50.1 |
| CC(C)c1cccc(C(C)C)c1OC(=O)NS(=O)(=O)NC(c1ccccc1)C(C)C (stereo not drawn) [Example 65, Carbamic acid, [[((1-methylethyl)phenylmethyl)amino]sulfonyl]-, 2,6-bis(1-methylethyl)phenyl ester] | 16.4 |
| CC(C)c1cccc(C(C)C)c1OC(=O)NS(=O)(=O)NC(c1ccccc1)c1ccccc1 [Example 1, Carbamic acid, [[(diphenylmethyl)amino]sulfonyl]-, 2,6-bis(1-methylethyl)phenyl ester] | 24.8 |
| CC(C)c1cc(C(C)(C)C)cc(C(C)C)c1OC(=O)NS(=O)(=O)Oc1c(C(C)C)cccc1C(C)C [Example 143, Carbamic acid, [[2,6-bis(1-methylethyl)phenoxy]sulfonyl]-, 4-(1,1-dimethylethyl)-2,6-bis(1-methylethyl)phenyl ester] | 65.8 |
| CCCCN(CCCC)S(=O)(=O)NC(=O)Oc1c(C(C)(C)C)cc(C)cc1C(C)(C)C [Example 30, Carbamic acid, [(dibutylamino)sulfonyl]-, 2,6-bis(1,1-dimethylethyl)-4-methylphenyl ester] | 52 |
| CC(C)c1cccc(C(C)C)c1OC(=O)NS(=O)(=O)N1CCOCC1 [Example 58, Carbamic acid, (4-morpholinylsulfonyl)-, 2,6-bis(1-methylethyl)phenyl ester] | < 10 |
| CCCCCCCCCCCCOS(=O)(=O)NC(=O)Oc1c(C(C)(C)C)cc(C)cc1C(C)(C)C [Example 51, Carbamic acid, [(dodecyloxy)sulfonyl]-, 2,6-bis(1,1-dimethylethyl)-4-methylphenyl ester] | 47.2 |
| Cc1cc(C)c(C)c(OC(=O)NS(=O)(=O)Oc2c(C(C)C)cccc2C(C)C)c1C [Example 166, Carbamic acid, [[2,6-bis(1-methylethyl)phenoxy]sulfonyl]-, 2,3,5,6-tetramethylphenyl ester] | < 10 |
| COc1cc(C(C)(C)C)c(OC(=O)NS(=O)(=O)Nc2c(C(C)C)cccc2C(C)C)c(C(C)(C)C)c1 [Example 50, Carbamic acid, [[[2,6-bis(1-methylethyl)phenyl]amino]sulfonyl]-, 2,6-bis(1,1-dimethylethyl)-4-methoxyphenyl ester] | 39.1 |
| CC(C)c1cccc(C(C)C)c1OC(=O)NS(=O)(=O)Oc1c(C(C)C)cc(O)cc1C(C)C [Example 135, Carbamic acid, [[4-hydroxy-2,6-bis(1-methylethyl)phenoxy]sulfonyl]-, 2,6-bis(1-methylethyl)phenyl ester] | < 10 |
| Cc1cc(C(C)(C)C)c(OC(=O)NS(=O)(=O)N(CCCN(C)C)CCCN(C)C)c(C(C)(C)C)c1 [Example 40, Carbamic acid, [[bis[3-(dimethylamino)propyl]amino]sulfonyl]-, 2,6-bis(1,1-dimethylethyl)-4-methylphenyl ester] | < 10 |
| CC(C)c1cc([N+](=O)[O-])cc(C(C)C)c1OC(=O)NS(=O)(=O)Oc1c(C(C)C)cccc1C(C)C [Example 110, Carbamic acid, [[2,6-bis(1-methylethyl)phenoxy]sulfonyl]-, 2,6-bis(1-methylethyl)-4-nitrophenyl ester] | 15.5 |
| CCCCCN(CCCCC)S(=O)(=O)NC(=O)Oc1c(C(C)C)cccc1C(C)C [Example 89, Carbamic acid, [(dipentylamino)sulfonyl]-, 2,6-bis(1-methylethyl)phenyl ester] | 31.9 |
| CCCCCCCCN(C)S(=O)(=O)NC(=O)Oc1c(C(C)C)cccc1C(C)C [Example 87, Carbamic acid, [(methyloctylamino)sulfonyl]-, 2,6-bis(1-methylethyl)-phenyl ester] | < 10 |
